Measured values reported in US20090274675A1, “Migraine tonic” (priority 2008, published 2009).

Assays:
migraine headache = settings: several clinical trials in the U.S and Europe; cited from earlier work
[1] = system: women suffering from severe migraine; experiment: Intravenous magnesium in intra-partum and post-partum women with severe migraine; assay type: in vivo, human; settings: intravenous injection
Experimental: Use of magnesium is useful to control this neuronal excitability, which is one factor that perpetuates migraine. […] In this invention the unit dosage of Magnesium Citrate to be used is 250 to 500 mg. per total formulation dosage.

Structure (SMILES)	improvement in migraine headache (migraine headache)	effect on severe migraine [1]
Cc1cc2nc3c(=O)[nH]c(=O)nc-3n(C[C@H](O)[C@H](O)[C@H](O)CO)c2cc1C [riboflavin, Riboflavin]	statistically significant	
[Mg+2] [magnesium, Magnesium]		dramatic effect
